Results published in patent US20230040770A1, “HETEROCYCLIC COMPOUND AND USE THEREOF” (TAKEDA PHARMACEUTICAL COMPANY LIMITED, priority 2019, published 2023).

target: T1, human orexin type 2 receptor (Homo sapiens, UniProt O43614); assay: Measurement of orexin type 2 receptor agonist activity (calcium indicator fluorescence, CHO cells forcibly expressing human OX2 receptor); format: cell-based; conditions: compound at 3 μM; 0% = DMSO, 100% = orexin A (human) 10 nM
T1 construct: expressed in transfected cells
T1 sequence (O43614 1-444): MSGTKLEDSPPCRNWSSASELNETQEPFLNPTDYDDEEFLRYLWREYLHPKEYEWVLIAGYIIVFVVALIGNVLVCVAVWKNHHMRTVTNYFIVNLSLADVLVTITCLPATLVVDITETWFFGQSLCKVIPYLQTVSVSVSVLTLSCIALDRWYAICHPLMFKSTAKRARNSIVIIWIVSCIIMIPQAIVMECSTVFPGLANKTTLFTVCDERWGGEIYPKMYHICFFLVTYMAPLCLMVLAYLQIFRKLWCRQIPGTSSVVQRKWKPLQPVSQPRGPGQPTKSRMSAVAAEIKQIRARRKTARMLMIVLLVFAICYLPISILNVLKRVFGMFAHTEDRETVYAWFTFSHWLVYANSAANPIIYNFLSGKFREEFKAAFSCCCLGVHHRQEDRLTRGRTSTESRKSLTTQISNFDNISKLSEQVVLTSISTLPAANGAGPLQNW
Outline: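 CHO-dhfr cells stably expressing human OX2R, loaded with Fluo-4 AM (30 min 37 °C, then 30 min RT), then given test compound. Calcium fluorescence read by FDSS over ~2 min. Activity (%) scaled from DMSO (0%) to 10 nM final orexin A (100%).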

Question: With O=C(C1CCO1)N1C[C@H](F)[C@H](NS(=O)(=O)C2CC2)[C@@H]1Cc1cccc(-c2cccc(F)c2F)c1F (stereo partly drawn) [Example 480, N-{(2S,3R,4S)-4-fluoro-1-(oxetane-2-carbonyl)-2-[(2,2′,3′-trifluoro[1,1′-biphenyl]-3-yl)methyl]pyrrolidin-3-yl}cyclopropanesulfonamide] as the compound, how does the “OX2R agonist activity (3 μM, %)” value read?
Answer: 101%

Question: O=C(C1CCO1)N1C[C@H](F)[C@H](NS(=O)(=O)C2CC2)[C@@H]1Cc1cccc(-c2cc(F)ccc2F)c1F (stereo partly drawn) [Example 481, N-{(2S,3R,4S)-4-fluoro-1-(oxetane-2-carbonyl)-2-[(2,2′,5′-trifluoro[1,1′-biphenyl]-3-yl)methyl]pyrrolidin-3-yl}cyclopropanesulfonamide] was tested. Which “OX2R agonist activity (3 μM, %)” value did it give?
Answer: 104%

Question: O=C(C1CCO1)N1C[C@H](F)[C@H](NS(=O)(=O)C2CC2)[C@@H]1Cc1cccc(-c2ccccc2)c1F (stereo partly drawn) [Example 482, N-[(2S,3R,4S)-4-fluoro-2-[(2-fluoro[1,1′-biphenyl]-3-yl)methyl]-1-(oxetane-2-carbonyl)pyrrolidin-3-yl]cyclopropanesulfonamide] was tested. Which “OX2R agonist activity (3 μM, %)” value did it give?
Answer: 100%

Question: With O=C(C1CCO1)N1C[C@H](F)[C@H](NS(=O)(=O)C2CC2)[C@@H]1Cc1cccc(-c2ccccc2F)c1F (stereo partly drawn) [Example 483, N-[(2S,3R,4S)-2-[(2,2′-difluroo[1,1′-biphenyl]-3-yl)methyl]-4-fluoro-1-(oxetane-2-carbonyl)pyrrolidin-3-yl]cyclopropanesulfonamide] as the compound, how does the “OX2R agonist activity (3 μM, %)” value read?
Answer: 108%

Question: How did the “OX2R agonist activity (3 μM, %)” value turn out when Cc1cccc(-c2cccc(C[C@H]3[C@@H](NS(=O)(=O)C4CC4)[C@@H](F)CN3C(=O)C3CCO3)c2F)c1 (stereo partly drawn) [Example 484, N-[(2S,3R,4S)-4-fluoro-2-[(2-fluoro-3′-methyl[1,1′-biphenyl]-3-yl)methyl]-1-(oxetane-2-carbonyl)pyrrolidin-3-yl]cyclopropanesulfonamide] was run?
Answer: 90%

Question: For O=C(C1CCO1)N1C[C@H](F)[C@H](NS(=O)(=O)C2CC2)[C@@H]1Cc1cccc(-c2cccc(Cl)c2)c1F (stereo partly drawn) [Example 485, N-[(2S,3R,4S)-2-[(3′-chloro-2-fluoro[1,1′-biphenyl]-3-yl)methyl]-4-fluoro-1-(oxetane-2-carbonyl)pyrrolidin-3-yl]cyclopropanesulfonamide], which “OX2R agonist activity (3 μM, %)” value is on record?
Answer: 93%

Question: How did the “OX2R agonist activity (3 μM, %)” value turn out when Cc1cc(F)cc(-c2cccc(C[C@H]3[C@@H](NS(=O)(=O)C4CC4)[C@@H](F)CN3C(=O)C3CCO3)c2F)c1 (stereo partly drawn) [Example 486, N-[(2S,3R,4S)-2-[(2,3′-difluoro-5′-methyl[1,1′-biphenyl]-3-yl)methyl]-4-fluoro-1-(oxetane-2-carbonyl)pyrrolidin-3-yl]cyclopropanesulfonamide] was run?
Answer: 88%

Question: Which “OX2R agonist activity (3 μM, %)” value does the source give for Cc1cccc(-c2cccc(C[C@H]3[C@@H](NS(=O)(=O)C4CC4)[C@@H](F)CN3C(=O)C3CCO3)c2F)c1F (stereo partly drawn) [Example 487, N-[(2S,3R,4S)-2-[(2,2′-difluoro-3′-methyl[1,1′-biphenyl]-3-yl)methyl]-4-fluoro-1-(oxetane-2-carbonyl)pyrroldiin-3-yl]cyclopropanesulfonamide] here?
Answer: 95%

Question: How did the “OX2R agonist activity (3 μM, %)” value turn out when Cc1ccc(F)c(-c2cccc(C[C@H]3[C@@H](NS(=O)(=O)C4CC4)[C@@H](F)CN3C(=O)C3CCO3)c2F)c1 (stereo partly drawn) [Example 488, N-[(2S,3R,4S)-2-[(2,2′-difluoro-5′-methyl[1,1′-biphenyl]-3-yl)methyl]-4-fluoro-1-(oxetane-2-carobnyl)pyrrolidin-3-yl]cycloproapnesulfonamide] was run?
Answer: 95%

Question: Which “OX2R agonist activity (3 μM, %)” value does the source give for Cc1cccc(-c2cccc(C[C@H]3[C@@H](NS(=O)(=O)C4CC4)[C@@H](F)CN3C(=O)C3CCO3)c2F)c1 (stereo partly drawn) [Example 489, N-[(2S,3R,4S)-4-fluoro-2-[(2-fluoro-3′-methyl[1,1′-biphenyl]-3-yl)methyl]-1-(oxetane-2-carbonyl)pyrrolidin-3-yl]cyclopropanesulfonamide] here?
Answer: 92%

Question: How did the “OX2R agonist activity (3 μM, %)” value turn out when Cc1cccc(-c2cccc(C[C@H]3[C@@H](NS(=O)(=O)C4CC4)[C@@H](F)CN3C(=O)C3CCO3)c2F)c1F (stereo partly drawn) [Example 490, N-[(2S,3R,4S)-2-[(2,2′-difluoro-3′-methyl[1,1′-biphenyl]-3-yl)methyl]-4-fluoro-1-(oxetane-2-carobnyl)pyrrolidin-3-yl]cyclopropanesulfonamide] was run?
Answer: 93%

Question: For Cc1cc(F)cc(-c2cccc(C[C@H]3[C@@H](NS(=O)(=O)C4CC4)[C@@H](F)CN3C(=O)C3CCO3)c2F)c1 (stereo partly drawn) [Example 491, N-[(2S,3R,4S)-2-[(2,3′-difluoro-5′-methyl[1,1′-biphenyl]-3-yl)methyl]-4-fluoro-1-(oxetane-2-carbonyl)pyrrolidin-3-yl]cyclopropanesulfonamide], which “OX2R agonist activity (3 μM, %)” value is on record?
Answer: 93%

Question: Which “OX2R agonist activity (3 μM, %)” value does the source give for Cc1ccc(F)c(-c2cccc(C[C@H]3[C@@H](NS(=O)(=O)C4CC4)[C@@H](F)CN3C(=O)C3CCO3)c2F)c1 (stereo partly drawn) [Example 492, N-[(2S,3R,4S)-2-[(2,2′-difluoro-5′-methyl[1,1′-biphenyl]-3-yl)methyl]-4-fluoro-1-(oxetane-2-carbonyl)pyrrolidin-3-yl]cyclopropanesulfonamide] here?
Answer: 90%

Question: For O=C(C1CCO1)N1C[C@H](F)[C@H](NS(=O)(=O)C2CC2)[C@@H]1Cc1cccc(-c2cc(F)cc(F)c2)c1F (stereo partly drawn) [Example 493, N-{(2S,3R,4S)-4-fluoro-1-(oxetane-2-carbonyl)-2-[(2,3′,5′-trifluoro[1,1′-biphenyl]-3-yl)methyl]pyrrolidin-3-yl}cyclopropanesulfonamide], which “OX2R agonist activity (3 μM, %)” value is on record?
Answer: 95%

Question: O=C(C1CCO1)N1C[C@H](F)[C@H](NS(=O)(=O)C2CC2)[C@@H]1Cc1cccc(-c2cccc(F)c2F)c1F (stereo partly drawn) [Example 494, N-{(2S,3R,4S)-4-fluoro-1-(oxetane-2-carbonyl)-2-[(2,2′,3′-trifluoro[1,1′-biphenyl]-3-yl)methyl]pyrrolidin-3-yl}cyclopropanesulfonamide] was tested. Which “OX2R agonist activity (3 μM, %)” value did it give?
Answer: 96%

Question: For O=C(C1CCO1)N1C[C@H](F)[C@H](NS(=O)(=O)C2CC2)[C@@H]1Cc1cccc(-c2cc(F)ccc2F)c1F (stereo partly drawn) [Example 495, N-{(2S,3R,4S)-4-fluoro-1-(oxetane-2-carbonyl)-2-[(2,2′,5′-trifluoro[1,1′-biphenyl]-3-yl)methyl]pyrrolidin-3-yl}cyclopropanesulfonamide], which “OX2R agonist activity (3 μM, %)” value is on record?
Answer: 92%

Question: For O=C(C1CCO1)N1C[C@H](F)[C@H](NS(=O)(=O)C2CC2)[C@@H]1Cc1cccc(-c2ccccc2)c1F (stereo partly drawn) [Example 496, N-[(2S,3R,4S)-4-fluoro-2-[(2-fluoro[1,1′-biphenyl]-3-yl)methyl]-1-(oxetane-2-carbonyl)pyrrolidin-3-yl]cyclopropanesulfonamide], which “OX2R agonist activity (3 μM, %)” value is on record?
Answer: 95%

Question: O=C(C1CCO1)N1C[C@H](F)[C@H](NS(=O)(=O)C2CC2)[C@@H]1Cc1cccc(-c2cccc(Cl)c2)c1F (stereo partly drawn) [Example 497, N-[(2S,3R,4S)-2-[(3′-chloro-2-fluoro[1,1′-biphenyl]-3-yl)methyl]-4-fluoro-1-(oxetane-2-carbonyl)pyrrolidin-3-yl]cyclopropanesulfonamide] was tested. Which “OX2R agonist activity (3 μM, %)” value did it give?
Answer: 91%

Question: Which “OX2R agonist activity (3 μM, %)” value does the source give for CCS(=O)(=O)N[C@H]1[C@@H](F)CN(C(=O)C2CCO2)[C@H]1Cc1cccc(-c2cccc(C)c2)c1F (stereo partly drawn) [Example 498, N-[(2S,3R,4S)-4-fluoro-2-[(2-fluoro-3′-methyl[1,1′-biphenyl]-3-yl)methyl]-1-(oxetane-2-carbonyl)pyrrolidin-3-yl]ethanesulfonamide] here?
Answer: 99%

Question: How did the “OX2R agonist activity (3 μM, %)” value turn out when CCS(=O)(=O)N[C@H]1[C@@H](F)CN(C(=O)C2CCO2)[C@H]1Cc1cccc(-c2cccc(C)c2F)c1F (stereo partly drawn) [Example 499, N-[(2S,3R,4S)-2-[(2,2′-difluoro-3′-methyl[1,1′-biphenyl]-3-yl)methyl]-4-fluoro-1-(oxetane-2-carbonyl)pyrrolidin-3-yl]ethanesulfonamide] was run?
Answer: 96%

Question: CCS(=O)(=O)N[C@H]1[C@@H](F)CN(C(=O)C2CCO2)[C@H]1Cc1cccc(-c2ccc(F)c(C)c2)c1F (stereo partly drawn) [Example 500, N-[(2S,3R,4S)-2-[(2,4′-difluoro-3′-methyl[1,1′-biphenyl]-3-yl)methyl]-4-fluoro-1-(oxetane-2-carbonyl)pyrrolidin-3-yl]ethanesulfonamide] was tested. Which “OX2R agonist activity (3 μM, %)” value did it give?
Answer: 98%

Question: CCS(=O)(=O)N[C@H]1[C@@H](F)CN(C(=O)C2CCO2)[C@H]1Cc1cccc(-c2cc(C)cc(F)c2)c1F (stereo partly drawn) [Example 501, N-[(2S,3R,4S)-2-[(2,3′-difluoro-5′-methyl[1,1′-biphenyl]-3-yl)methyl]-4-fluoro-1-(oxetane-2-carbonyl)pyrrolidin-3-yl]ethanesulfonamide] was tested. Which “OX2R agonist activity (3 μM, %)” value did it give?
Answer: 96%

Question: For CCS(=O)(=O)N[C@H]1[C@@H](F)CN(C(=O)C2CCO2)[C@H]1Cc1cccc(-c2cc(C)ccc2F)c1F (stereo partly drawn) [Example 502, N-[(2S,3R,4S)-2-[(2,2′-difluoro-5′-methyl[1,1′-biphenyl]-3-yl)methyl]-4-fluoro-1-(oxetane-2-carbonyl)pyrrolidin-3-yl]ethanesulfonamide], which “OX2R agonist activity (3 μM, %)” value is on record?
Answer: 96%

Question: For CCS(=O)(=O)N[C@@H]1[C@H](Cc2cccc(-c3cccc(C(F)F)c3)c2F)N(C(=O)C2CCO2)CC1(F)F (stereo partly drawn) [Example 503, N-[(2S,3R)-2-{[3′-(difluoromethyl)-2-fluoro[1,1′-biphenyl]-3-yl]methyl}-4,4-difluoro-1-(oxetane-2-carbonyl)pyrrolidin-3-yl]ethanesulfonamide], which “OX2R agonist activity (3 μM, %)” value is on record?
Answer: 89%
